Several values for one entry are separate records, joined by “and”; a condition that tells them apart may be missing. Identical values can stand only once. Activity calls are given as the source filed them. Cut-off read from the data, not from the text of the source, for most assays here: actives have a measured EC50 and inactives only a lower limit.
Key:
[1] = Trypanosoma cruzi growth suppression in host cells – NIH3T3 host cells, beta-gal luminescence, confirmation (AID 2044); type: functional, cell-based;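 note: intracellular parasites grown in NIH/3T3 mouse fibroblasts as host cells; luminescent beta-galactosidase reporter signal from transgenic T. cruzi replicating inside host cells; inhibitors lower the luminescence signal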
[2] = NIH3T3 cell viability loss – ATP luminescence, mouse fibroblasts, counter-screen, dose response (AID 2010); type: functional, cell-based;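 note: cells exposed to compound for about 90 hours before reading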
[3] = target: T1, Heat shock factor protein 1 (Mus musculus, UniProt P38532); assay: enhancement of HSF1-driven luciferase signal – cell-based, NIH3T3, luminescence, dose retest, confirmation (AID 435004); type: functional;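 note: stress induced by proteasome inhibitor MG132 added 30 min after compound; luciferase reporter driven by HSF1 response element in NIH3T3 cells; actives raise luminescence as potentiators of the MG132 stress response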
T1 sequence (P38532 whole entry): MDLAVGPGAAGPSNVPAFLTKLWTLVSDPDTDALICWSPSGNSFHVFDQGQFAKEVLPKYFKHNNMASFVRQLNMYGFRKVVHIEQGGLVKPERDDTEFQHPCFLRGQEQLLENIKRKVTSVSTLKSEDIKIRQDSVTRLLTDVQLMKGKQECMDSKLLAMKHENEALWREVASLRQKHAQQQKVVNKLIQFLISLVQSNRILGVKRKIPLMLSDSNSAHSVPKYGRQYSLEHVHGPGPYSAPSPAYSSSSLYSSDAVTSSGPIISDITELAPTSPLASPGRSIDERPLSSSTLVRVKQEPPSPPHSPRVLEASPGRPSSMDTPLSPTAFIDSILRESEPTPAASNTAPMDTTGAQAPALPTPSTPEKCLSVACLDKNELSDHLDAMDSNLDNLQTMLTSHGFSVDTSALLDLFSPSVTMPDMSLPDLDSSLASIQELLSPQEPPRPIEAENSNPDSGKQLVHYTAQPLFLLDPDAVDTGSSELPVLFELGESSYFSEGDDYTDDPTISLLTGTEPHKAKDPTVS

Cytochrome P450 3A4 = Cytochrome P450 3A4 (Homo sapiens, UniProt P08684);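 note: CYP3A4 tested as one member of a cytochrome P450 panel screen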
Cytochrome P450 2D6 = Cytochrome P450 2D6 (Homo sapiens, UniProt P10635);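 note: CYP2D6 member of a cytochrome P450 panel assay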
Cytochrome P450 1A2 = target: T2, Cytochrome P450 1A2 (Homo sapiens, UniProt P05177);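 note: PubChem cytochrome P450 panel assay, CYP1A2 panel member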
T2 sequence (P05177 whole entry): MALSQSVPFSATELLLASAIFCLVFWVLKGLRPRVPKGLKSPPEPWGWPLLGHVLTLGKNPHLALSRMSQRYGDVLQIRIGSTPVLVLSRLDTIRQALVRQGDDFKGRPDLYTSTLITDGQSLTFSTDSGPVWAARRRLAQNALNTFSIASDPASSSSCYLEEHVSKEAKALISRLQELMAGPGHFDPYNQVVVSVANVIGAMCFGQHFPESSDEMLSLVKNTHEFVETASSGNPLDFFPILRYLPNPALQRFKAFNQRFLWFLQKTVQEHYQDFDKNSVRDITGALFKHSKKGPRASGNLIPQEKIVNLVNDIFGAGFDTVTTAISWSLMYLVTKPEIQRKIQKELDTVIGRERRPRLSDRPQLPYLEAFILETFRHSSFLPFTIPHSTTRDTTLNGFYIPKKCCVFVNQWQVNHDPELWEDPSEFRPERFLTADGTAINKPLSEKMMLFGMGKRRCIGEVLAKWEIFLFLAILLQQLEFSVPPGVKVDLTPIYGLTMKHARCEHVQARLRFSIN

Streptococcus = assay: GAS UMAA2166 growth inhibition – luminescence, BacTiterGlo, counter-screen for streptokinase expression inhibitor project, dose response (AID 1915); type: functional, organism-based;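 note: potency for reduction of bacterial viability or growth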
[4] = test system: Streptococcus sp. 'group A'; assay: Streptococcus pyogenes SK(-)GAS viability under kanamycin – luminescence, BacTiterGlo, confirmation, counter-screen for streptokinase expression inhibitor project, dose response (AID 1900); type: functional, organism-based

Cytochrome P450 3A4, sequence (P08684 whole entry): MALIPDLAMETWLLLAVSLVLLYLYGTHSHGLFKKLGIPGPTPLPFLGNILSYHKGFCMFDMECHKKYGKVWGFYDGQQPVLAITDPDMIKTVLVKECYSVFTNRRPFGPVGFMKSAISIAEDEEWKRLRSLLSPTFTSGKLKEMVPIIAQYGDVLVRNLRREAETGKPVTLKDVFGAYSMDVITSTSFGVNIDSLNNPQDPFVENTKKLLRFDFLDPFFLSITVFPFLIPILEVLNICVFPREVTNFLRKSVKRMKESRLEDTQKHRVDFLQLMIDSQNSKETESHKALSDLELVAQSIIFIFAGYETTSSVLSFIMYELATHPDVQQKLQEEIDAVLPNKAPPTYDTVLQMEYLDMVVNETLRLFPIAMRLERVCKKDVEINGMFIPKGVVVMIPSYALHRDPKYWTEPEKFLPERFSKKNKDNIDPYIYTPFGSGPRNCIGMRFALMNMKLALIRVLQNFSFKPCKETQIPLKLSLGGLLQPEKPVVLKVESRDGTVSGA
Cytochrome P450 2D6, sequence (P10635 whole entry): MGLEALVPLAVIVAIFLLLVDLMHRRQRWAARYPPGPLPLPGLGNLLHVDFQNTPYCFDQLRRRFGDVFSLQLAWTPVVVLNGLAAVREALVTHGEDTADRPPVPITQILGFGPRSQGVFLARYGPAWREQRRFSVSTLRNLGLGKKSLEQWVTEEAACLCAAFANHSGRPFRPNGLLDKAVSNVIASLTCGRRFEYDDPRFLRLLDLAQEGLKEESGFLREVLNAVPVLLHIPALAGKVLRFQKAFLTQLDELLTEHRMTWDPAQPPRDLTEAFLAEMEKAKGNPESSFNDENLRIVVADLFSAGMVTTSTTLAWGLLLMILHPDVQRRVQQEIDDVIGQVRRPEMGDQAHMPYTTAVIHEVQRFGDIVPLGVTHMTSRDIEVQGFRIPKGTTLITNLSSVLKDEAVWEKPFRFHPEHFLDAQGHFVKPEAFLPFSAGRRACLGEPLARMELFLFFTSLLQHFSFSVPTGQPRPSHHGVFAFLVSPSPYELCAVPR

CCN1CCN(c2oc(COc3ccc(-c4ccccc4)cc3)nc2C#N)CC1
EC50 [1]: 2.66 µM (active) | EC50 [2]: > 60 µM (not active)

COc1cccc(NC(=O)CSc2nc(N)cc(N)n2)c1
EC50 [3]: > 260 µM (inactive)

Cc1ccc2cc(C(c3nnnn3C3CCCC3)N(Cc3ccco3)Cc3cccs3)c(O)nc2c1 (stereo unspecified)
EC50 [1]: 3.2 µM (active) | EC50 [2]: > 60 µM (not active)

CO[C@@H]1CC=C2CCN3CCC4=C(CC(=O)OC4)[C@]23C1
AC50 (Cytochrome P450 3A4): 39.8 µM (inconclusive)

CC(C)(C)NC(=O)CSc1nnc(Cc2ccc3c(c2)OCO3)n1C1CCCCC1
AC50 (Cytochrome P450 2D6): 2.82 µM (inconclusive)

CN1CCN(c2ccc(NC(=O)c3ccc4c(c3)nc(O)n4Cc3ccc(F)cc3)cc2)CC1
EC50 [1]: 0.955 µM (active) | EC50 [2]: > 30 µM (not active)

CCSc1nnc(NC(=O)CSc2nc3c(cc2C#N)CCCC3)s1
AC50 (Cytochrome P450 2D6): 3.55 µM (inconclusive) | AC50 (Cytochrome P450 1A2): 15.8 µM (inconclusive)

CCOc1ccc(NC(=O)c2ccc(OC)cc2)cc1
AC50 (Cytochrome P450 1A2): 20 µM (inconclusive)

COc1ccc(S(=O)(=O)N2CCOC23CCN(S(=O)(=O)c2ccc([N+](=O)[O-])cc2)CC3)cc1
EC50 [1]: 2.03 µM (active) | EC50 [2]: > 30 µM (not active)

CCOC(=O)NC(NC(=O)OCC)C(=O)c1ccc(F)cc1
AC50 (Cytochrome P450 1A2): 10 µM (inconclusive)

COc1ccc(C(F)(F)F)cc1N/C=C\c1nnnn1-c1ccccc1
AC50 (Cytochrome P450 1A2): 1.41 µM (inconclusive) | AC50 (Cytochrome P450 3A4): 31.6 µM (inconclusive)

CCCCCCCCCCCCC/C=C\[C@@H](O)[C@H](CO)NC(C)=O
AC50 (Cytochrome P450 2D6): 3.98 µM (inconclusive)

O=C(CSc1nccn(-c2ccc(F)c(F)c2)c1=O)NC1CCCC1
EC50 [3]: > 260 µM (inactive)

O=C(CCc1nnc(CCCCc2ccccc2)o1)NCCN1CCCCC1=O
EC50 [3]: > 260 µM (inactive)

c1ccc(C(c2ccccc2)c2noc(CN3CCC(c4ccncc4)CC3)n2)cc1
EC50 [1]: 0.943 µM (active) | EC50 [2]: > 30 µM (not active)

O=C(c1ccccc1)[C@H](Nc1ccc2ccccc2c1)c1ccccc1
AC50 (Cytochrome P450 2D6): 1.58 µM (inconclusive)

C=CCn1c(=O)c2c(nc(Br)n2Cc2ccccc2Cl)n(C)c1=O
AC50 (Cytochrome P450 1A2): 15.8 µM (inconclusive)

COc1ccc([N+](=O)[O-])cc1N=C(S)NC(NC(=O)Cc1ccc(OC)c(OC)c1)C(Cl)(Cl)Cl (stereo unspecified)
AC50 (Cytochrome P450 1A2): 17.8 µM (inconclusive)

Cc1c(C(=O)NCc2ccc3c(c2)OCO3)oc2ccc(S(=O)(=O)N3CCC(C)CC3)cc12
EC50 [1]: 1.04 µM (active) | EC50 [2]: 50.9 µM (active)

CCC(Sc1nc2cc3c(cc2c(=O)n1Cc1ccco1)OCO3)C(=O)NCCOC (stereo unspecified)
EC50 [3]: > 260 µM (inactive)

COc1ccc(CCN=C(NS(=O)(=O)c2ccccc2)c2ccccc2)cc1OC
EC50 [3]: > 260 µM (inactive)

CCS(=O)(=O)C(=C1NCCO1)S(=O)(=O)CC
EC50 [3]: > 260 µM (inactive)

COc1ccccc1N1CCN(C(CNS(=O)(=O)c2cc(F)ccc2F)c2cccnc2)CC1 (stereo unspecified)
EC50 [1]: 0.367 µM (active) | EC50 [2]: > 60 µM (not active)

CN(C)S(=O)(=O)c1ccc(C(=O)Nc2nnc(-c3ccc4c(c3)CCCC4)o2)cc1
EC50 (Streptococcus): 0.264 µM (active) | EC50 [4]: 0.286 µM (active)

COC(=O)CN1C(c2cccc(Cl)c2)=Nc2ccc(Cl)cc2C1c1ccccc1 (stereo unspecified)
EC50 [3]: > 260 µM (inactive)

COc1ccc(C(=O)N2CCC3(CC2)CCN(c2cccc(-c4ccccc4)c2)CC3)cc1
AC50 (Cytochrome P450 1A2): 25.1 µM (inconclusive)

COc1ccc(C(=O)n2nc(C)cc2Nc2ccccc2)cc1
EC50 [3]: 7.2 µM (active)

NCCNC(=O)c1ncsc1-c1cccc(F)c1
AC50 (Cytochrome P450 3A4): 31.6 µM (inconclusive)

C[C@](N)(CCP(=O)(O)O)C(=O)O
AC50 (Cytochrome P450 1A2): 39.8 µM (inconclusive)

CCN(CC)C(=O)c1ccc(C)c(Br)c1
EC50 [3]: > 260 µM (inactive)

CC(c1nnnn1C(C)(C)C)N(Cc1cccnc1)Cc1ccccc1Cl (stereo unspecified)
EC50 [1]: 0.496 µM (active) | EC50 [2]: > 60 µM (not active)

Cc1csc(-c2cnn(-c3ccccc3)c2NC(=O)c2cccc(C(F)(F)F)c2)n1
EC50 [3]: > 260 µM (inactive)

CCCOc1ccc(N2C(=O)CC(N(CCc3ccc(OC)c(OC)c3)C(S)=Nc3ccccc3)C2=O)cc1 (stereo unspecified)
EC50 [1]: 2.1 µM (active) | EC50 [2]: > 30 µM (not active)

CCCOc1ccc(NC(=O)OC2CCN(C)CC2)cc1
EC50 [1]: 0.442 µM (active) | EC50 [2]: > 60 µM (not active)

CS(=O)(=O)Nc1cccc(-c2nccc(Nc3ccc(F)cc3)n2)c1
AC50 (Cytochrome P450 2D6): 39.8 µM (inconclusive)

CCOc1cc(CNc2cccc3ccccc23)cc(Br)c1OCC(=O)NC(C)(C)C
EC50 [1]: 2.31 µM (active) | EC50 [2]: > 30 µM (not active)

CC(=O)Nc1cccc(-n2nnc(SCC(=O)Nc3ccc(F)c(Cl)c3)n2)c1
EC50 [3]: > 260 µM (inactive)

O=C(Nc1nnc(SCc2ccc(Cl)cc2)s1)c1ccco1
AC50 (Cytochrome P450 1A2): 3.16 µM (inconclusive) | AC50 (Cytochrome P450 3A4): 31.6 µM (inconclusive)

CCCCOc1ccc(/C=C/C(=O)NCCc2nc3ccccc3[nH]2)cc1
AC50 (Cytochrome P450 2D6): 14.1 µM (inconclusive)

Cc1cc(NC(=O)c2cccs2)n(-c2nc3ccccc3[nH]2)n1
EC50 [1]: 1.95 µM (active) | EC50 [2]: 14.2 µM (active)

CN(C)c1ncc2nc(-c3ccc(F)cc3)c(=O)n(CCc3ccccc3)c2n1
AC50 (Cytochrome P450 1A2): 2.51 µM (inconclusive)

Cc1c(N(C)S(=O)(=O)c2cccc(C(=O)NC(C)C)c2)c(=O)n(-c2ccccc2)n1C
EC50 [3]: > 260 µM (inactive)

CCc1cccc(CC)c1NC(=O)COC(=O)CC1c2ccccc2CCN1S(=O)(=O)c1ccc(F)cc1 (stereo unspecified)
EC50 [3]: > 260 µM (inactive)

CCN(CCCNC(=O)CNC(=O)c1nn(-c2ccc(OC)cc2OC)c(=O)c2ccccc12)c1cccc(C)c1
EC50 [3]: > 260 µM (inactive)

COc1cc2c(cc1OC)C(C(=O)N1CCOCC1)C(c1cccs1)N(C)C2=O (stereo unspecified)
AC50 (Cytochrome P450 3A4): 25.1 µM (inconclusive)

O=[N+]([O-])c1ccc(S(=O)(=O)NCCS(=O)(=O)N2CCN(c3ccccc3)CC2)cc1
EC50 [1]: 0.247 µM (active) | EC50 [2]: > 60 µM (not active)

COc1ccc(NC(=O)N2CCC3(CC2)CCN(C(=O)c2ccncc2)CC3)cc1
AC50 (Cytochrome P450 1A2): 25.1 µM (inconclusive) | AC50 (Cytochrome P450 3A4): 15.8 µM (inconclusive)

CN(C)C(=O)c1ccc(-c2nc(NCc3cccs3)c3ccccc3n2)cc1
AC50 (Cytochrome P450 2D6): 25.1 µM (inconclusive)

COC(=O)C(NNc1ccccc1C)(NC(=O)c1ccc(F)cc1)C(F)(F)F (stereo unspecified)
EC50 [3]: > 260 µM (inactive)

N#Cc1ccc(CN2CC3(CCN(C(=O)c4ccncc4)CC3)C2)cc1
AC50 (Cytochrome P450 3A4): 12.6 µM (inconclusive)

COCC(=O)N1CCC2(CC1)CN(c1ccncc1)C2
AC50 (Cytochrome P450 2D6): 25.1 µM (inconclusive)

O=C(NNc1c(Cl)cccc1Cl)C1CCC1
EC50 [3]: > 260 µM (inactive)

CC(C)(C)c1cc(NC(=O)CCSc2nnc3ccccn23)cc(C(C)(C)C)c1
EC50 [3]: > 260 µM (inactive)

Cc1nn(CC(=O)NCc2ccccc2)c(C)c1[N+](=O)[O-]
AC50 (Cytochrome P450 3A4): 22.4 µM (inconclusive)

CC(=O)Nc1sc2c(c1CN1CCN(C)CC1)CCCC2
AC50 (Cytochrome P450 1A2): 17.8 µM (inconclusive)

Cc1cnn(-c2cc(N/N=C/c3cccc(F)c3)ncn2)c1
EC50 [3]: > 260 µM (inactive)

C(=N\N1CCN(Cc2cccc3ccccc23)CC1)/c1cccnc1
EC50 [3]: > 260 µM (inactive)

CCOc1cc(/C=N/O)cc(Cl)c1OC
AC50 (Cytochrome P450 3A4): 31.6 µM (inconclusive)

COc1cc(/C=N/Nc2snc(SC)c2C#N)cc(OC)c1OC
AC50 (Cytochrome P450 2D6): 12.6 µM (inconclusive)

C/C(=N\Nc1nc(N2CCCCC2)nc(N2CCOCC2)n1)c1ccccc1O
EC50 [1]: 0.681 µM (active) | EC50 [2]: 6.37 µM (active)

CN(C)CCCCNCCCNC(=O)/C=N\O
EC50 [3]: > 260 µM (inactive)

CC1(C)CC[C@]2(C(=O)O)CC[C@]3(C)C(=CCC4[C@@]5(C)CC[C@H](O)C(C)(C)C5CC[C@]43C)C2C1 (stereo partly specified)
EC50 [4]: 2.6 µM (active)

O=C(Nc1ccccc1)/C(=C\c1ccncc1)NC(=O)c1ccccc1
AC50 (Cytochrome P450 1A2): 15.8 µM (inconclusive) | AC50 (Cytochrome P450 3A4): 0.794 µM (inconclusive)

Cc1cc(Cn2ccnc2)c(C)c([N+](=O)[O-])c1Cn1ccnc1
EC50 [1]: 2.05 µM (active) | EC50 [2]: > 60 µM (not active)

COc1ccc2c(c1)c(CC(=O)O)c(C)n2C(=O)c1ccc(Cl)cc1 [INDOMETHACIN]
AC50 (Cytochrome P450 1A2): 10 µM (inconclusive) and 39.8 µM (inconclusive)
